From patent US8197858B2, “Bone microenvironment modulated seizure treatments” (priority 2009, dated 2012)

Columns and labels:
[1] = serum estrogen levels and half life with estradiol transdermal patch in postmenopausal women (Ginsburg et al.); format: in vivo; settings: female, human, other: transdermal patch, 0.1 mg, after removal of patch, worked out from mean half life, read-out: terminal half life (converted)
From the text: Exogenous estrogen can be used to inhibit osteoclast activity and bone resorption by the “triple whammy” previously disclosed, inhibiting osteoclast activity by binding to osteoblasts and 1) increasing their output of OPG and 2) suppressing their RANKL production and 3) prolonging the lives of osteoblasts while simultaneously promoting osteoclast apoptosis. […] The dose is low enough and for a short enough period of time that it should not materially interfere with any of the menstrual processes. Alternatively, the patch may also be cut in half to obtain a half dose (0.05 ng/ml) cushion factor. Estrogen is available in oral, injectable, and patch forms from numerous suppliers and include Estrace, Cenestin, Enjuvia, Femtrace, Gynodiol, Menest etc. . . .
SERM/Estradiol: If the patient is on birth control, which is basically 3 weeks of estrogen followed by 1 week of sugar pills, the SERM raloxifene could be substituted for the sugar pills. Alternatively, low levels of estrogen could be substituted for one or more of the sugar pills, with the goal of keeping the serum levels around 0.1 ng/ml, without the sharp transition drop, and without the potential for interfering with progression of menstruation. Alternatively, an estrogen patch may be used. […]

serum calcium [2] = settings: 7.5 mg/kg, 2 h infusion x3 days; cited from earlier work
patients with PMS = settings: double blind study; cited from earlier work
blood calcium levels = settings: more potent than human calcitonin; cited from earlier work
[3] = testosterone levels with Androderm transdermal patch; settings: human, in vivo, other: transdermal patch
From the text: When androgens such as testosterone bind to osteoblast receptors, the osteoblast is stimulated to form new bone (i.e. move calcium into bone). […] Accordingly, administration of androgens such as testosterone, or administration of endocrine hormones that upregulate indigenous production of androgens (e.g. in males, luteinizing hormone, gonadotropin/luteinizing hormone releasing hormone), can be used to reduce extracellular calcium levels by moving calcium back into bone. Testosterone USP is natural testosterone that has been approved by the United States Pharmacopoeia and is available as a bulk chemical. Testosterone is well-absorbed from transdermal (topical) creams and gels. Dosage forms also include sublingual drops, buccal or sublingual troches or tablet triturates. […] In the form known as Testosterone Cypionate, testosterone can be administered by intramuscular injection every 1-3 weeks. WatsonPharma's Androderm transdermal 2.5 mg or 5 mg testosterone patch provides a more convenient way to administer testosterone, and provides the ability to administer the testosterone over a desired time frame much more precisely (as will be discussed further in representative examples). Androderm patches can ramp up testosterone levels quickly (e.g. 349 ng/dl within 3 hours, 528 ng/dl within 6 hours, when applied to the back) and can be used for up to 24 hours. […]

serum calcium [4] = settings: injections of 4-8 IU/kg (IM or SubQ), most patients; cited from earlier work
[5] = system: tryptophan hydroxylase (TPH); settings: estrogen treated monkey; cited from earlier work

## C[C@]12CC[C@@H]3c4ccc(O)cc4CC[C@H]3[C@@H]1CC[C@@H]2O [estradiol]
[1]
  half-life: ~9 h

## CC(O)(P(=O)(O)O)P(=O)(O)O [etidronate disodium]
Serum calcium [2]
  duration of efficacy: more than a week

## N[C@@H](Cc1cc(I)c(Oc2cc(I)c(O)c(I)c2)c(I)c1)C(=O)O [levothyroxine]
Patients with PMS
  benefit over the placebo: did not show any benefit over the placebo

## CC(C)C[C@H](NC(=O)[C@H](CCCCN)NC(=O)CNC(=O)[C@H](CC(C)C)NC(=O)[C@@H](NC(=O)[C@@H]1CSSC[C@H](N)C(=O)N[C@@H](CO)C(=O)N[C@@H](CC(N)=O)C(=O)N[C@@H](CC(C)C)C(=O)N[C@@H](CO)C(=O)N[C@@H]([C@@H](C)O)C(=O)N1)C(C)C)C(=O)N[C@@H](CO)C(=O)N[C@@H](CCC(N)=O)C(=O)N[C@@H](CCC(=O)O)C(=O)N[C@@H](CC(C)C)C(=O)N[C@@H](Cc1c[nH]cn1)C(=O)N[C@@H](CCCCN)C(=O)N[C@@H](CC(C)C)C(=O)N[C@@H](CCC(N)=O)C(=O)N[C@H](C(=O)N[C@@H](Cc1ccc(O)cc1)C(=O)N1CCC[C@H]1C(=O)N[C@@H](CCCNC(=N)N)C(=O)N[C@H](C(=O)N[C@@H](CC(N)=O)C(=O)N[C@H](C(=O)NCC(=O)N[C@@H](CO)C(=O)NCC(=O)N[C@H](C(=O)N1CCC[C@H]1C(N)=O)[C@@H](C)O)[C@@H](C)O)[C@@H](C)O)[C@@H](C)O [salmon calcitonin]
Blood calcium levels
  potency relative to human calcitonin: 40-50 times

## C[C@]12CC[C@H]3[C@@H](CCC4=CC(=O)CC[C@@]43C)[C@@H]1CC[C@@H]2O [testosterone]
[3]
  time to return to baseline levels after removal of the patch: 3 to 4 h

## Calcitonin
Serum calcium [4]
  drop in serum calcium levels: 1 to 2 mg/dL

## estrogen
[5]
  increase in tryptophan hydroxylase (TPH): nine-fold
